In publication PMC8205226, “HIV-1 Integrase Inhibitors with Modifications That Affect Their Potencies against Drug Resistant Integrase Mutants” (ACS Infectious Diseases, 2021):
Like-named read-outs stand apart in the source and are kept apart here.

What was measured:
HIV-1 IN mutant N155H [1] = settings: single round infection; previously reported; cited from earlier work
HIV-1 IN mutant P142A = assay: single-round infectivity assay, P142A IN mutant; assay type: cell-based
Summary of the method: (§1)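 HIV-1 vector pNLNgoMIVR-ΔENV.LUC carrying the IN mutation (made by site-directed mutagenesis) was used in a single-round infection assay, with luciferase reporter. EC50 values were derived from independent experiments, n = 4, each performed in triplicate.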

HIV-1 IN mutant N155H [2] = assay: single-round infectivity assay, N155H IN mutant; assay type: cell-based
Summary of the method: (§2)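 Single-round infection with luciferase-reporter HIV-1 vector (pNLNgoMIVR-ΔENV.LUC background) carrying WT or mutant integrase; EC50 values determined from infectivity in presence of compound, independent experiments run in triplicate.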

HIV-1 IN mutant R231K = assay: single-round infectivity assay, R231K IN mutant; assay type: cell-based; settings: EC50 compound / EC50 DTG
Summary of the method: (§3)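 Antiviral EC50 determined in single-round infection using HIV-1 vector pNLNgoMIVR-ΔENV.LUC (luciferase reporter) carrying the IN mutation, made by site-directed mutagenesis; WT vector run alongside. Values from n = 4 independent experiments, each in triplicate, reported with standard deviations.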

HIV-1 IN mutant Y143R [3] = settings: single round infection; previously reported; cited from earlier work
HIV-1 IN mutant G118R [4] = settings: single round infection; previously shown; cited from earlier work
HIV-1 IN mutant S230R = assay: single-round infectivity assay, S230R IN mutant; assay type: cell-based
Summary of the method: as §3

HIV-1 IN mutant Y143H = assay: single-round infectivity assay, Y143H IN mutant; assay type: cell-based
Summary of the method: as §1

[5] = tested on: HIV-1 IN double mutant G140S/Q148H; assay: single-round infectivity assay, G140S/Q148H IN double mutant; assay type: cell-based
Summary of the method: as §2

HIV-1 IN mutant R231G = assay: single-round infectivity assay, R231G IN mutant; assay type: cell-based
Summary of the method: as §3

WT HIV-1 = settings: vector carrying WT HIV-1 IN, single round infection; previously reported; cited from earlier work
[6] = tested on: HIV-1 IN double mutant G140S/Q148H; settings: single round infection; previously reported; cited from earlier work
HIV-1 IN mutant P142S = assay: single-round infectivity assay, P142S IN mutant; assay type: cell-based
Summary of the method: as §1

HIV-1 IN mutant Y143R [7] = assay: single-round infectivity assay, Y143R IN mutant; assay type: cell-based
Summary of the method: as §2

HIV-1 IN mutant G118R [8] = assay: single-round infectivity assay, G118R IN mutant; assay type: cell-based
Summary of the method: (§4)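 EC50 measured in single-round infection with HIV-1 pNLNgoMIVR-ΔENV.LUC-based vectors carrying the IN mutation, luciferase reporter. IN mutants generated by site-directed mutagenesis; n = 4 independent experiments, each in triplicate.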

HIV-1 IN mutant S119R = assay: single-round infectivity assay, S119R IN mutant; assay type: cell-based
Summary of the method: as §4

HIV-1 IN mutant N117A = assay: single-round infectivity assay, N117A IN mutant; assay type: cell-based
Summary of the method: as §4

HIV-1 IN mutant Y143C = assay: single-round infectivity assay, Y143C IN mutant; assay type: cell-based
Summary of the method: as §1

HIV-1 IN mutant N117H = assay: single-round infectivity assay, N117H IN mutant; assay type: cell-based
Summary of the method: as §4

HIV-1 IN mutant P142H = assay: single-round infectivity assay, P142H IN mutant; assay type: cell-based
Summary of the method: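 EC50 was obtained in a single-round infection assay using the luciferase-reporter, Env-deleted HIV-1 vector pNLNgoMIVR-ΔENV.LUC carrying the P142H integrase mutation made by site-directed mutagenesis. Data are from four independent experiments, each in triplicate.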

[9] = fold change in EC50, IN mutant versus WT HIV-1

## Nc1c(C(=O)NCc2ccc(F)cc2F)c(=O)n(O)c2ncc(CCCCCCO)cc12 [4d]
HIV-1 IN mutant N155H [1]
  EC50: 2.7 ± 1 nM
HIV-1 IN mutant P142A; EC50 compound / EC50 DTG
  ratio of the EC50s (our compound relative to DTG) against P142A: 0.8
HIV-1 IN mutant P142A; Human immunodeficiency virus 1, read-out: EC50 values P142A
  EC50: 2.1 ± 0.3 nM
HIV-1 IN mutant P142A; [9]
  FC P142A: 0.9
HIV-1 IN mutant N155H [2]; EC50 compound / EC50 DTG
  ratio of the EC50s (our compound relative to DTG) against N155H: 0.8
HIV-1 IN mutant N155H [2]; [9]
  FC N155H: 1.2
HIV-1 IN mutant R231K
  ratio of the EC50s (our compound relative to DTG) against R231K: 0.6
HIV-1 IN mutant Y143R [3]
  EC50: 2.1 ± 1.4 nM
HIV-1 IN mutant G118R [4]
  EC50: 6.4 ± 2.5 nM
HIV-1 IN mutant S230R; EC50 compound / EC50 DTG
  ratio of the EC50s (our compound relative to DTG) against S230R: 0.8
HIV-1 IN mutant S230R; Human immunodeficiency virus 1, read-out: EC50 values S230R
  EC50: 3.8 ± 0.3 nM
HIV-1 IN mutant S230R; [9]
  FC S230R: 1.7
HIV-1 IN mutant Y143H; EC50 compound / EC50 DTG
  ratio of the EC50s (our compound relative to DTG) against Y143H: 0.8
HIV-1 IN mutant Y143H; Human immunodeficiency virus 1, read-out: EC50 values Y143H, single round infection, n = 4
  EC50: 1.5 ± 0.1 nM
HIV-1 IN mutant Y143H; [9]
  FC Y143H: 0.7
HIV-1 IN mutant Y143H; read-out: EC50 values Y143H, single round infection, n = 4
  EC50: < 3 nM
[5]; EC50 compound / EC50 DTG
  ratio of the EC50s (our compound relative to DTG) against G140S/Q148H: 1.6
[5]; [9]
  FC G140S/Q148H: 4.1
HIV-1 IN mutant R231G; EC50 compound / EC50 DTG
  ratio of the EC50s (our compound relative to DTG) against R231G: 0.9
HIV-1 IN mutant R231G; Human immunodeficiency virus 1, read-out: EC50 values R231G
  EC50: 1.3 ± 0.2 nM
HIV-1 IN mutant R231G; [9]
  FC R231G: 0.6
WT HIV-1
  EC50: 2.3 ± 0.6 nM
[6]
  EC50: 9.4 ± 3.6 nM
HIV-1 IN mutant P142S; EC50 compound / EC50 DTG
  ratio of the EC50s (our compound relative to DTG) against P142S: 0.5
HIV-1 IN mutant P142S; Human immunodeficiency virus 1, read-out: EC50 values P142S
  EC50: 1.2 ± 0.2 nM
HIV-1 IN mutant P142S; [9]
  FC P142S: 0.5
HIV-1 IN mutant Y143R [7]; EC50 compound / EC50 DTG
  ratio of the EC50s (our compound relative to DTG) against Y143R: 0.5
HIV-1 IN mutant Y143R [7]; [9]
  FC Y143R: 0.9
HIV-1 IN mutant G118R [8]; EC50 compound / EC50 DTG
  ratio of the EC50s (our compound relative to DTG) against G118R: 0.5
HIV-1 IN mutant G118R [8]; [9]
  FC G118R: 2.8
HIV-1 IN mutant S119R; EC50 compound / EC50 DTG
  ratio of the EC50s (our compound relative to DTG) against S119R: 0.9
HIV-1 IN mutant S119R; Human immunodeficiency virus 1, read-out: EC50 values S119R
  EC50: 2.1 ± 0.1 nM
HIV-1 IN mutant S119R; [9]
  FC S119R: 0.9
HIV-1 IN mutant N117A; EC50 compound / EC50 DTG
  ratio of the EC50s (our compound relative to DTG) against N117A: 1.2
HIV-1 IN mutant N117A; Human immunodeficiency virus 1, read-out: EC50 values N117A
  EC50: 0.6 nM
HIV-1 IN mutant N117A; [9]
  FC N117A: 0.3
HIV-1 IN mutant Y143C; EC50 compound / EC50 DTG
  ratio of the EC50s (our compound relative to DTG) against Y143C: 0.9
HIV-1 IN mutant Y143C; [9]
  FC Y143C: 0.5
HIV-1 IN mutant N117H; EC50 compound / EC50 DTG
  ratio of the EC50s (our compound relative to DTG) against N117H: 1.3
HIV-1 IN mutant N117H; Human immunodeficiency virus 1, read-out: EC50 values N117H
  EC50: 3 nM
HIV-1 IN mutant N117H; [9]
  FC N117H: 1.3
HIV-1 IN mutant P142H; EC50 compound / EC50 DTG
  ratio of the EC50s (our compound relative to DTG) against P142H: 0.5
HIV-1 IN mutant P142H; Human immunodeficiency virus 1, read-out: EC50 values P142H
  EC50: 1.5 ± 0.1 nM
HIV-1 IN mutant P142H; [9]
  FC P142H: 0.7
